Assay results published in the supplement of paper PMC4862054.

Experiments:
Conditions in all cases: incubation time: 72 h
BT-549 [1] = test: drug sensitivity score (DSS), CellTox Green (DSS (AUC-based score)); higher = stronger drug effect (viability inhibition or cytotoxicity); extreme values may be limits of the assay
How it was run: (§1)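 Breast cancer cell lines, seeded as 20 µl suspension, were incubated 72 h with compound in 384-well plates at 5 concentrations in 10-fold steps over a 10,000-fold range set for each compound. Fluorescence from CellTox Green was read at 485/520 nm before CellTiter-Glo luminescence, which was read after 10 min at room temperature. Every plate was normalised to 0.1 % DMSO and a positive kill control, and the drug sensitivity score was taken from the area under the fitted dose-response curve.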

CAL-85-1 [2] = test: as above
How it was run: as §1

DU-4475 [3] = test: as above
How it was run: as §1

HCC1143 [4] = test: as above
How it was run: as §1

HCC1599 [5] = test: as above
How it was run: as §1

HDQ-P1 [6] = test: as above
How it was run: as §1

MCF-10A [7] = test: as above
How it was run: as §1

MDA-MB-231 [8] = test: as above
How it was run: as §1

MDA-MB-436 [9] = test: as above
How it was run: as §1

MDA-MB-468 [10] = test: as above
How it was run: as §1

BT-474 = test: normalised response (% of control), CellTiter-Glo; higher = more viable cells (100 = DMSO, 0 = benzethonium chloride kill control)
Procedure: (§2)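 DSRT, 72 h incubation, CellTox Green / CellTiter-Glo readout. Signal is normalised to DMSO and benzethonium chloride controls. Value is the normalised response at the highest dose.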

BT-549 [11] = test: as above
Procedure: as §2

CAL-120 = test: as above
Procedure: as §2

CAL-148 = test: as above
Procedure: as §2

CAL-85-1 [12] = test: as above
Procedure: as §2

DU-4475 [13] = test: as above
Procedure: as §2

HCC1143 [14] = test: as above
Procedure: as §2

HCC1599 [15] = test: as above
Procedure: as §2

HCC1937 = test: as above
Procedure: as §2

HDQ-P1 [16] = test: as above
Procedure: as §2

Hs578T = test: as above
Procedure: as §2

MCF-10A [17] = test: as above
Procedure: as §2

MDA-MB-231 [18] = test: as above
Procedure: as §2

MDA-MB-436 [19] = test: as above
Procedure: as §2

MDA-MB-453 = test: as above
Procedure: as §2

MDA-MB-468 [20] = test: as above
Procedure: as §2

MFM-223 = test: as above
Procedure: as §2

SK-BR-3 = test: as above
Procedure: as §2

Row | SMILES | drug sensitivity score (BT-549 [1]) | drug sensitivity score (CAL-85-1 [2]) | drug sensitivity score (DU-4475 [3]) | drug sensitivity score (HCC1143 [4]) | drug sensitivity score (HCC1599 [5]) | drug sensitivity score (HDQ-P1 [6]) | drug sensitivity score (MCF-10A [7]) | drug sensitivity score (MDA-MB-231 [8]) | drug sensitivity score (MDA-MB-436 [9]) | drug sensitivity score (MDA-MB-468 [10]) | normalised response (BT-474) | normalised response (BT-549 [11]) | normalised response (CAL-120) | normalised response (CAL-148) | normalised response (CAL-85-1 [12]) | normalised response (DU-4475 [13]) | normalised response (HCC1143 [14]) | normalised response (HCC1599 [15]) | normalised response (HCC1937) | normalised response (HDQ-P1 [16]) | normalised response (Hs578T) | normalised response (MCF-10A [17]) | normalised response (MDA-MB-231 [18]) | normalised response (MDA-MB-436 [19]) | normalised response (MDA-MB-453) | normalised response (MDA-MB-468 [20]) | normalised response (MFM-223) | normalised response (SK-BR-3)
1 | Cn1cc(C2=Nc3cc(NC(=O)C(N)C4CCCCC4)cc4c3C2=CNNC4=O)cn1 (stereo not given) | 4.35 | 12 | 0 | 0 | 0 | 7.95 | 16.2 | 8.99 | 0 | 3.14 | – | – | – | – | – | – | – | – | – | – | – | – | – | – | – | – | – | –
2 | Cn1cc(C2=Nc3cc(NC(=O)C(N)C4CCCCC4)cc4c3C2=CNNC4=O)cn1 (stereo not given) (10000 nM) | – | – | – | – | – | – | – | – | – | – | 38.3% | 12.1% | 42.8% | 53.1% | 26.7% | 48.4% | 14.7% | 10.9% | 21.2% | 48.6% | 26.6% | 38.6% | 37.3% | 22.6% | 46.6% | 12.4% | 50.4% | 8.5%
3 | COc1cc2c(cc1O)CC[C@@H]1[C@@H]2CC[C@]2(C)[C@@H](O)CC[C@@H]12 [2-methoxyestradiol] | 0.838 | 0 | 0 | 0 | 0 | 0 | 1.69 | 13.2 | 0 | 0 | – | – | – | – | – | – | – | – | – | – | – | – | – | – | – | – | – | –
4 | COc1cc2c(cc1O)CC[C@@H]1[C@@H]2CC[C@]2(C)[C@@H](O)CC[C@@H]12 [2-methoxyestradiol] (10000 nM) | – | – | – | – | – | – | – | – | – | – | 58.1% | 48.8% | 62.6% | 39.8% | 33.3% | 42.2% | 49.3% | 31.6% | 68.5% | 73.7% | 25.4% | 67.1% | 51.9% | 44.7% | 59.7% | 34.4% | 54.4% | 17.1%
5 | Cc1sc2c(c1C)C(c1ccc(Cl)cc1)=N[C@@H](CC(=O)OC(C)(C)C)c1nnc(C)n1-2 [(+)JQ1] | 0 | 8.47 | 1.14 | 0 | 0 | 0 | 0 | 0 | 0 | 8.47 | – | – | – | – | – | – | – | – | – | – | – | – | – | – | – | – | – | –
6 | Cc1sc2c(c1C)C(c1ccc(Cl)cc1)=N[C@@H](CC(=O)OC(C)(C)C)c1nnc(C)n1-2 [(+)JQ1] (10000 nM) | – | – | – | – | – | – | – | – | – | – | 66.1% | 35.7% | 78% | 49.1% | 27.9% | 20.4% | 58.3% | 85.5% | 68.2% | 71.1% | 41.3% | 46.5% | 64.2% | 76.4% | 32.6% | 36.6% | 45.1% | 53.2%
7 | Oc1ncnc2[nH]ncc12 [Allopurinol] (10000 nM) | – | – | – | – | – | – | – | – | – | – | 97.9% | 102% | 99.1% | 106% | 106% | 99.7% | 104% | 102% | 102% | 95.1% | 102% | 105% | 103% | 101% | 111% | 97.9% | 103% | 114%
8 | O=C1CN2Cc3c(ccc(Cl)c3Cl)N=C2N1 [Anagrelide] (10000 nM) | – | – | – | – | – | – | – | – | – | – | 88% | 97.3% | 96.5% | 96.4% | 94.4% | 98.9% | 93% | 97% | 97.9% | 90.9% | 80.5% | 105% | 99.5% | 96% | 100% | 92% | 99.6% | 102%
9 | Nc1ncn([C@@H]2O[C@H](CO)[C@@H](O)[C@H]2O)c(=O)n1 [Azacitidine] (10000 nM) | – | – | – | – | – | – | – | – | – | – | 71.4% | 45% | 61.6% | 87.7% | 106% | 60.7% | 75% | 76.1% | 69.3% | 63% | 58.9% | 77% | 68% | 54.7% | 102% | 17% | 53.8% | 92.4%
10 | O=NN(CCCl)C(=O)NCCCl [Carmustine] (10000 nM) | – | – | – | – | – | – | – | – | – | – | 91.5% | 110% | 96.2% | 100% | 101% | 96.5% | 106% | 104% | 99.6% | 96.1% | 101% | 93.8% | 99.9% | 96.7% | 87.3% | 97.3% | 94.4% | 95.2%
11 | CC1=C2C[C@H]3[C@@H](CC=C4C[C@@H](O)CC[C@@]43C)[C@@H]2CC[C@]12O[C@@H]1C[C@H](C)CN[C@H]1[C@H]2C [Cyclopamine] (10000 nM) | – | – | – | – | – | – | – | – | – | – | 113% | 58% | 103% | 110% | 104% | 105% | 93.2% | 107% | 97.1% | 86% | 101% | 108% | 106% | 84.6% | 103% | 51.5% | 101% | 102%
12 | CC(=O)O[C@@]12CO[C@@H]1C[C@H](O)[C@@]1(C)C(=O)[C@H](O)C3=C(C)[C@@H](OC(=O)[C@H](O)[C@@H](NC(=O)OC(C)(C)C)c4ccccc4)C[C@@](O)([C@@H](OC(=O)c4ccccc4)[C@H]21)C3(C)C [Docetaxel] (1000 nM) | – | – | – | – | – | – | – | – | – | – | 39.3% | 17.1% | 55.3% | 45.5% | 28.9% | 44% | 38.3% | 29.6% | 73.8% | 64.2% | 13.6% | 48% | 28.5% | 32.8% | 44.4% | 34.9% | 48.9% | 10.7%
13 | C[C@]12CC[C@@H]3c4ccc(OC(=O)N(CCCl)CCCl)cc4CC[C@H]3[C@@H]1CC[C@@H]2O [Estramustine] | 2.52 | 0 | 0 | 0 | 0 | – | 0 | 0 | 0 | 3.38 | – | – | – | – | – | – | – | – | – | – | – | – | – | – | – | – | – | –
14 | CC1(C)CNc2cc(NC(=O)c3cccnc3NCc3ccncc3)ccc21 [Motesanib] (10000 nM) | – | – | – | – | – | – | – | – | – | – | 90.9% | 97% | 103% | 86.9% | 95.8% | 98.6% | 94.8% | 107% | 97.8% | 92.5% | 91.8% | 95.4% | 93.5% | 95% | 91.6% | 87.6% | 88.1% | 86.3%
15 | CC[C@@H]1C(=O)OC[C@@H]1Cc1cncn1C [Pilocarpine] | 0 | 0 | 0 | 0 | 0 | 0 | 0 | 0 | 0 | – | – | – | – | – | – | – | – | – | – | – | – | – | – | – | – | – | – | –
16 | CC[C@@H]1C(=O)OC[C@@H]1Cc1cncn1C [Pilocarpine] (40000 nM) | – | – | – | – | – | – | – | – | – | – | 91.6% | 102% | 91.2% | 88.6% | 94.6% | 95.7% | 89.6% | 104% | 96.7% | 91.9% | 99% | 99.1% | 93.4% | 89.7% | 92.7% | 96% | 97.6% | 102%
17 | CC(C)(C)c1cnc(CSc2cnc(NC(=O)C3CCNCC3)s2)o1 [SNS-032] (10000 nM) | – | – | – | – | – | – | – | – | – | – | 31.8% | 5.15% | 43.3% | 77.1% | 7.47% | 10.3% | 15.1% | 7.5% | 38.6% | 24.3% | 8.34% | 17.1% | 8.77% | 18.2% | 56.4% | 6.47% | 32% | 4.26%
18 | Cn1cnc2c(F)c(Nc3ccc(Br)cc3Cl)c(C(=O)NOCCO)cc21 [Selumetinib] (10000 nM) | – | – | – | – | – | – | – | – | – | – | 55.5% | 84.1% | 66.8% | 76.1% | 61% | 0.53% | 76.6% | 72.7% | 76.3% | 56.3% | 76.4% | 31.8% | 62.4% | 85.4% | 93.8% | 69.9% | 67.9% | 92%
19 | Nc1nc2[nH]cnc2c(=S)[nH]1 [Thioguanine] (10000 nM) | – | – | – | – | – | – | – | – | – | – | 40.8% | 48.5% | 37% | 68.2% | 51.7% | 24.1% | 66.7% | 28.2% | 35.8% | 31.8% | 33.2% | 66.9% | 33.4% | 31.3% | 79% | 48.9% | 72.9% | 62.1%
